Results as given in ChEMBL document CHEMBL1156181, “B-Raf kinase inhibitors: hit enrichment through scaffold hopping” (Bioorg Med Chem Lett, 2010).
Blank lines part the entries; values can stand above or below the compound they belong to.

Tests used:
A-375 = experiment: Growth inhibition of human A375 cells; assay type: functional, cell-based
LoVo = experiment: Growth inhibition of human LoVo cells; assay type: functional, cell-based
HT-29 = experiment: Growth inhibition of human HT-29 cells; assay type: functional, cell-based
Caco-2 = experiment: Growth inhibition of human Caco-2 cells; assay type: functional, cell-based
[1] = Growth inhibition of human WM266.4 cells; assay type: functional, cell-based; details: WM 266-4
[2] = target: Cyclin-dependent kinase 4 (Homo sapiens, UniProt P11802); experiment: Inhibition of CDK4
[3] = target: T1, Inhibitor of nuclear factor kappa-B kinase subunit beta (Homo sapiens, UniProt O14920); experiment: Inhibition of IKK2
T1 sequence (O14920 whole entry): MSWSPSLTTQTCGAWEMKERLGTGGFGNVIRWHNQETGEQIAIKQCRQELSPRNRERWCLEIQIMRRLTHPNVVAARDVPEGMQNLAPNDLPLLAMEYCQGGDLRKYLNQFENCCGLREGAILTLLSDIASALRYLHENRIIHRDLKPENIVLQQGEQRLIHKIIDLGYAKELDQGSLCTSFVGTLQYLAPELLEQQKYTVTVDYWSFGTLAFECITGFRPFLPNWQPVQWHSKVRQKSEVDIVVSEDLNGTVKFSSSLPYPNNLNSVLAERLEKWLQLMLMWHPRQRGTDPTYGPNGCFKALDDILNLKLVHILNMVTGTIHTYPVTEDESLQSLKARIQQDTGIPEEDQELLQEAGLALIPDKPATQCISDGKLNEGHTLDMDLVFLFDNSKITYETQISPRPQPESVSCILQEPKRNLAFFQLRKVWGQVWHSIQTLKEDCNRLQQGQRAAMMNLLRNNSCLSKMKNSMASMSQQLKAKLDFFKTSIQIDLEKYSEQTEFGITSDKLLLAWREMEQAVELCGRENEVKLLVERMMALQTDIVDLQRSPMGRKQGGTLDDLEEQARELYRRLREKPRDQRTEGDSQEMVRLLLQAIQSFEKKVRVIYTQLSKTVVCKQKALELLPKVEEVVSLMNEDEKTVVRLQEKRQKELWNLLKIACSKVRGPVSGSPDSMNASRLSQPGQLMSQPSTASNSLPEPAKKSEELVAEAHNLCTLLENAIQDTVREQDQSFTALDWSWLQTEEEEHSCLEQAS

[4] = target: RAC-alpha serine/threonine-protein kinase (Homo sapiens, UniProt P31749); experiment: Inhibition of AKT
[5] = target: Serine/threonine-protein kinase mTOR (Homo sapiens, UniProt P42345); experiment: Inhibition of mTOR
[6] = target: T2, Tyrosine-protein kinase ITK/TSK (Homo sapiens, UniProt Q08881); experiment: Inhibition of ITK
T2 sequence (Q08881 whole entry): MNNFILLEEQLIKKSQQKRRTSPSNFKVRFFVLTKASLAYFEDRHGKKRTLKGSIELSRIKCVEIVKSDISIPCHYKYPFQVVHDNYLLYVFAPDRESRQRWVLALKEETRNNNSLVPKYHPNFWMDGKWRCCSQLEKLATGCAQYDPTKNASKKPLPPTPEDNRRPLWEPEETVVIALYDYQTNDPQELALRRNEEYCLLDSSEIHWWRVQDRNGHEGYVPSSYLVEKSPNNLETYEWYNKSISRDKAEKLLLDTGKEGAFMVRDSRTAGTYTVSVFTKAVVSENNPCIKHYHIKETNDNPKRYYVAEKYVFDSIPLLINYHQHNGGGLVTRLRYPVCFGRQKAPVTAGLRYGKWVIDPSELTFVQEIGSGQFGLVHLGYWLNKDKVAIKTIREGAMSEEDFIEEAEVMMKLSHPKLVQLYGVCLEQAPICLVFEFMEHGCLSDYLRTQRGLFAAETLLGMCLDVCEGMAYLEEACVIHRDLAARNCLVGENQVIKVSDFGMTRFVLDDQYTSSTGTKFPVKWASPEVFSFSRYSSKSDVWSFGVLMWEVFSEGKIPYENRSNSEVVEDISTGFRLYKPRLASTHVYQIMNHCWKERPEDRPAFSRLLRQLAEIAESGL

[7] = target: Protein kinase C theta type (Homo sapiens, UniProt Q04759); experiment: Inhibition of PKCtheta
[8] = target: Tyrosine-protein kinase BTK (Homo sapiens, UniProt Q06187); experiment: Inhibition of BTK
[9] = target: Proto-oncogene tyrosine-protein kinase Src (Homo sapiens, UniProt P12931); experiment: Inhibition of SRC
[10] = target: Tyrosine-protein kinase Lyn (Homo sapiens, UniProt P07948); experiment: Inhibition of LYN
[11] = target: Phosphatidylinositol 4,5-bisphosphate 3-kinase catalytic subunit alpha isoform (Homo sapiens, UniProt P42336); experiment: Inhibition of PI3Kalpha
[12] = target: Serine/threonine-protein kinase B-raf (Homo sapiens, UniProt P15056); experiment: Inhibition of B-Raf
Serine/threonine-protein kinase B-raf, sequence (P15056 whole entry): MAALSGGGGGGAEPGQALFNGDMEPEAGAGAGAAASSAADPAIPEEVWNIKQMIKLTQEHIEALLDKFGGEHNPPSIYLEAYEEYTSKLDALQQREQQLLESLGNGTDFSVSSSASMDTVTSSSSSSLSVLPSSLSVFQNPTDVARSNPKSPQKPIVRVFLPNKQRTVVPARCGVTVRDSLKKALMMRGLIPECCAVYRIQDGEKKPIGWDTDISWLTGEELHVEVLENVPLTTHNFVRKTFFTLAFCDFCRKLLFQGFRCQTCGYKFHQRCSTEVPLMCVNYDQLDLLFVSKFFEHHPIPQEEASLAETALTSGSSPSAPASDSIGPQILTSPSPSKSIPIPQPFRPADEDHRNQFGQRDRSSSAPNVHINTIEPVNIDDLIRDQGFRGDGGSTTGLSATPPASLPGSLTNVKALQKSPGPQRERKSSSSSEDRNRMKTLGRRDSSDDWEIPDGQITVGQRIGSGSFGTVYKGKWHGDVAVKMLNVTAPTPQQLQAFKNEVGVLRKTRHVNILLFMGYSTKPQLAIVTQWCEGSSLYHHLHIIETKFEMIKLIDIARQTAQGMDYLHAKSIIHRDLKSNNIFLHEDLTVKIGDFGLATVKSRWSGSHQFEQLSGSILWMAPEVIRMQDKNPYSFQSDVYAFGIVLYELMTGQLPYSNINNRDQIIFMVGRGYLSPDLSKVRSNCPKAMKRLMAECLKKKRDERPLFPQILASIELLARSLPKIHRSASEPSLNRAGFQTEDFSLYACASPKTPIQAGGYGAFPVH

Tyrosine-protein kinase Lyn, sequence (P07948 whole entry, canonical isoform): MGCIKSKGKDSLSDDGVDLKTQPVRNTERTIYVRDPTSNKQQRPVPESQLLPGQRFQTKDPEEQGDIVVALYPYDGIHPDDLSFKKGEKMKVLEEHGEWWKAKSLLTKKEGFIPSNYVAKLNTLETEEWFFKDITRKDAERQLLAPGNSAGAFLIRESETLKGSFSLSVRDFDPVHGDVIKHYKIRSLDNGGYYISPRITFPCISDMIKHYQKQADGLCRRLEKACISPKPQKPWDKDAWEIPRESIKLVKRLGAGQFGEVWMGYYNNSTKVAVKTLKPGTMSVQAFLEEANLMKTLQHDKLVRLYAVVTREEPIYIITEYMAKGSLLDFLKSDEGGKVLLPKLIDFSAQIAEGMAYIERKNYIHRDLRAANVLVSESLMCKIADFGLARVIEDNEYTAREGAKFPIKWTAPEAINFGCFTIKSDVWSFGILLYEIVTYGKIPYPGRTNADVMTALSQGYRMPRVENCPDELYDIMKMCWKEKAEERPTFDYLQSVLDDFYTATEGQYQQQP
Protein kinase C theta type, sequence (Q04759 whole entry): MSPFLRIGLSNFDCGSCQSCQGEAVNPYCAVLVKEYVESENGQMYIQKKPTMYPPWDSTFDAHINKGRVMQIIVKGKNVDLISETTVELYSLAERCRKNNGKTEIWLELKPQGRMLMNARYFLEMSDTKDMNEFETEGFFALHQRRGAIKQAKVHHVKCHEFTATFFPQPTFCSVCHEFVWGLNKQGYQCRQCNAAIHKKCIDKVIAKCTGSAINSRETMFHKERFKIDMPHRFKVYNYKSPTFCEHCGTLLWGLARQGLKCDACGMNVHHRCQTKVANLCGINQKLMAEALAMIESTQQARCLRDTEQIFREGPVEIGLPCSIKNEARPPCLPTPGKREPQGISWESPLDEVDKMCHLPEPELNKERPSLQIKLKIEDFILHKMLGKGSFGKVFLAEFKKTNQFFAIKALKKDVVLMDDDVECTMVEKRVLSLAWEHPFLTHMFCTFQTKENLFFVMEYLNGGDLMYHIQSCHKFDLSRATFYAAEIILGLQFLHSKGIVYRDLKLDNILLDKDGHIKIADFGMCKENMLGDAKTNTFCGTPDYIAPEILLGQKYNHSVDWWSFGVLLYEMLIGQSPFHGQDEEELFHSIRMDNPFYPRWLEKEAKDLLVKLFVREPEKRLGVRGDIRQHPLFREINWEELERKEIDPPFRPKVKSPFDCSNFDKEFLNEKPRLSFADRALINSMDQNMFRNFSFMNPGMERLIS
Cyclin-dependent kinase 4, sequence (P11802 whole entry): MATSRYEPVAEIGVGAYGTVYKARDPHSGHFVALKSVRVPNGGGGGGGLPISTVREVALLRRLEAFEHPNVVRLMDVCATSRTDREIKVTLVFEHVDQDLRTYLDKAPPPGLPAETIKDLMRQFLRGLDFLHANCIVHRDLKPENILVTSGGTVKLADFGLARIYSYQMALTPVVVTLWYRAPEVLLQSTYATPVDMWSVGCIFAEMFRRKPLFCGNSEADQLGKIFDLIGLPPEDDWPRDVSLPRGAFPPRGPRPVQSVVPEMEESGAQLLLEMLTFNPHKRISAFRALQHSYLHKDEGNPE
Proto-oncogene tyrosine-protein kinase Src, sequence (P12931 2-536 limits assumed): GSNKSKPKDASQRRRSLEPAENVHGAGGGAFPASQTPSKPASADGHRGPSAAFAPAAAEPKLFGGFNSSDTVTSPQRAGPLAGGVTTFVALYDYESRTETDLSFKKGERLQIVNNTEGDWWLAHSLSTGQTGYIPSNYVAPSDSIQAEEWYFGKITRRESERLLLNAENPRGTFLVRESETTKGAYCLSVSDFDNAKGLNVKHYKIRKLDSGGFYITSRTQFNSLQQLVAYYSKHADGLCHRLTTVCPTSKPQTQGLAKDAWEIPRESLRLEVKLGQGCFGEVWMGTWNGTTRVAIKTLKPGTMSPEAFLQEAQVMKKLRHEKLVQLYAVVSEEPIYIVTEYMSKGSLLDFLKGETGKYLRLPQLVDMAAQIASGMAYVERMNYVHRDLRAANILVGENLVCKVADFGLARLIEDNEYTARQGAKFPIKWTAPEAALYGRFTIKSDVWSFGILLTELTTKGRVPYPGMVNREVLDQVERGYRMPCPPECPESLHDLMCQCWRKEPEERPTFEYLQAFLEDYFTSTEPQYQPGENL
Phosphatidylinositol 4,5-bisphosphate 3-kinase catalytic subunit alpha isoform, sequence (P42336 whole entry, canonical isoform): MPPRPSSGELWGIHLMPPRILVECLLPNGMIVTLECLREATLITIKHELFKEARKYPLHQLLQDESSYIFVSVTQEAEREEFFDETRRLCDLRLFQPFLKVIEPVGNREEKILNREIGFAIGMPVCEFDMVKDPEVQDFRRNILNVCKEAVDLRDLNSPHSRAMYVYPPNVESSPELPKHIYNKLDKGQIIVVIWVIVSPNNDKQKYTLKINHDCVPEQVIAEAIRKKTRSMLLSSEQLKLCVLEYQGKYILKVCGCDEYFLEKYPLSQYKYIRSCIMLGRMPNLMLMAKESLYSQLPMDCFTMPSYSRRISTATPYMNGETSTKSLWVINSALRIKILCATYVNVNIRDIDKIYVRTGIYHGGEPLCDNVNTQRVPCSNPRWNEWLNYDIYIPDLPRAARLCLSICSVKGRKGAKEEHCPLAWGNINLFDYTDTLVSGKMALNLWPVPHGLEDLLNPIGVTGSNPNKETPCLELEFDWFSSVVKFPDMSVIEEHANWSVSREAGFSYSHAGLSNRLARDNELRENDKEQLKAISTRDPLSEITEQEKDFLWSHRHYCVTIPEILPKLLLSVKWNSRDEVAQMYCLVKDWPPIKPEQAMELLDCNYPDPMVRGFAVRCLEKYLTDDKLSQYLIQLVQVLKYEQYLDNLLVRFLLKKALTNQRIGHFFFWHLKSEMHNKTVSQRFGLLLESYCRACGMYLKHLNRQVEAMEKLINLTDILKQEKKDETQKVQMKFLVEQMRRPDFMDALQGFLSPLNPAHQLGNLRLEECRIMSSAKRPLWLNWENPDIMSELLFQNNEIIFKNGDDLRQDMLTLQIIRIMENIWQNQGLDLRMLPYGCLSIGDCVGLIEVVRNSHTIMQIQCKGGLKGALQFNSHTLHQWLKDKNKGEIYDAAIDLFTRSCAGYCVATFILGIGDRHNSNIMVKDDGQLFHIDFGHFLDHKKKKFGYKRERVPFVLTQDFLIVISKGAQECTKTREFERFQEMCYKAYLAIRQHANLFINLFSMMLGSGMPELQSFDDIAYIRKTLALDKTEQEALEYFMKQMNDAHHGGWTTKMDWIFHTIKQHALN
Tyrosine-protein kinase BTK, sequence (Q06187 whole entry): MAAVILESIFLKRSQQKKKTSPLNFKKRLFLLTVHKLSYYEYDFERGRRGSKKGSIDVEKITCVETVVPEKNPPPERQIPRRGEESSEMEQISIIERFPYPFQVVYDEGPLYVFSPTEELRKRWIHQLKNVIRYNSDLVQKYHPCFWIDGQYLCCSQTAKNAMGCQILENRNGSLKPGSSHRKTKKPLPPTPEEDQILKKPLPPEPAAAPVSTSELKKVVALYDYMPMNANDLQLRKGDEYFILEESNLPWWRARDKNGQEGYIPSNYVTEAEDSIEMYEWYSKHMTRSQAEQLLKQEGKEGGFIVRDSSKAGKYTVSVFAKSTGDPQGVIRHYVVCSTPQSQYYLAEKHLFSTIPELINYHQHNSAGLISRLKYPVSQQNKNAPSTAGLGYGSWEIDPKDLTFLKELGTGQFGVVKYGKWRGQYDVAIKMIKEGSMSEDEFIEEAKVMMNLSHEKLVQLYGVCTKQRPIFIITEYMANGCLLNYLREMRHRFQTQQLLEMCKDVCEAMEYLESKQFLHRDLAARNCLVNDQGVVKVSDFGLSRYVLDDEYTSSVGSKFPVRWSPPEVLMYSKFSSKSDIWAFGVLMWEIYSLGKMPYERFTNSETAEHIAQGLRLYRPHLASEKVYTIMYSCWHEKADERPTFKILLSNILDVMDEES
RAC-alpha serine/threonine-protein kinase, sequence (P31749 whole entry): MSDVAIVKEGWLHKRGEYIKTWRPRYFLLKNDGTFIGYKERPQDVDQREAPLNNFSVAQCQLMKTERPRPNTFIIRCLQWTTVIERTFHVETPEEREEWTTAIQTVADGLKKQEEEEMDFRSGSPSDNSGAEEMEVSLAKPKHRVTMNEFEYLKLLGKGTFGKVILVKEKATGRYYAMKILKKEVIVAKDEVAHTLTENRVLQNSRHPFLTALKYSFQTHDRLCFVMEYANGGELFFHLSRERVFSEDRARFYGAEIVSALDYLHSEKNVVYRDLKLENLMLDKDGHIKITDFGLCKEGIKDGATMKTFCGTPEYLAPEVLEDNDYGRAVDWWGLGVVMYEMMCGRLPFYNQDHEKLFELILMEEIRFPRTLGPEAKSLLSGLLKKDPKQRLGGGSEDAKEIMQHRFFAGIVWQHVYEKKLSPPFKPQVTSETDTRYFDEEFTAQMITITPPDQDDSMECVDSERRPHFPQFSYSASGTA

IC50 (A-375): 0.23 µM
IC50 (LoVo): 0.3 µM
IC50 (HT-29): 0.15 µM
IC50 (Caco-2): 1.1 µM
IC50 [2]: > 10 µM
IC50 [3]: > 10 µM
IC50 [4]: > 10 µM
IC50 [5]: > 10 µM
IC50 [6]: > 10 µM
IC50 [7]: > 10 µM
IC50 [8]: > 10 µM
IC50 [9]: > 10 µM
IC50 [10]: > 10 µM
IC50 [11]: > 10 µM
SMILES: O=C(Nc1cccc(-c2ncnc3sc(-c4ccncc4)cc23)c1)c1cccc(C(F)(F)F)c1
IC50 [1]: 3.1 µM

IC50 [12]: > 10 µM
SMILES: N#Cc1cnc2cc(-c3cccnc3)sc2c1-c1cccc(NC(=O)c2cccc(C(F)(F)F)c2)c1

IC50 [12]: > 10 µM
SMILES: O=C(Nc1cccc(-c2ncnc3cc(-c4cccnc4)sc23)c1)c1cccc(C(F)(F)F)c1

IC50 [12]: > 10 µM
SMILES: O=C(Nc1cccc(-c2ccnc3cc(-c4cccnc4)nn23)c1)c1cccc(C(F)(F)F)c1

IC50 [12]: > 10 µM
SMILES: N#Cc1cnc2sc(-c3ccncc3)cc2c1-c1cccc(NC(=O)c2cccc(C(F)(F)F)c2)c1

IC50 [12]: > 10 µM
SMILES: N#Cc1cnc2sc(-c3cccnc3)cc2c1-c1cccc(NC(=O)c2cccc(C(F)(F)F)c2)c1
